pIC50, pKd: −log10 of the molar value. Values after ≈ are worked out from the molar mass of the structure shown. Active and inactive are the calls of the source. No cut-off for these calls is given here. Peptide text beside a SMILES is read from it. * marks the point of attachment. Palmitoyl = CCCCCCCCCCCCCCCC(=O)*
How the values were obtained:
MCF7 = test: Cytotoxicity against human MCF7 cells assessed as reduction in cell viability after 1 hr by MTT assay; format: functional, cell-based; conditions: MCF7, 1 h
U-937 [1] = test: Antiinflammatory activity in human U937 cells assessed as inhibition of LPS-induced IL-6 production at 6.25 uM after 24 hrs by ELISA relative to control; format: functional; conditions: U-937, 24 h
Lactococcus lactis = test: Antimicrobial activity against Streptococcus lactis AS 1.1690 after 18 hrs by micro dilution method; format: functional; conditions: AS 1.1690, 18 h
U-937 [2] = test: Antiinflammatory activity in human U937 cells assessed as inhibition of LPS-induced IL-6 production after 24 hrs by ELISA; format: functional, cell-based
Lipid bilayer [3] = test: Induction of membrane permeabilization in PG/CL large unilamellar vesicles assessed as blue shift at compound to lipid ratio of 60 by Tryptophan fluorescence spectroscopy
Lipid bilayer [4] = test: Induction of membrane permeabilization in calcein loaded LPS/PC/PG large unilamellar vesicles assessed as calcein leakage after 15 mins by fluorescence assay
[5] = Hemolytic activity against human erythrocytes after 1 hr; format: ADME, cell-based, Erythrocyte
Lipid bilayer [6] = test: Induction of membrane permeabilization in PG/CL/PE large unilamellar vesicles assessed as blue shift at compound to lipid ratio of 10 by Tryptophan fluorescence spectroscopy
Staphylococcus aureus [7] = test: Antimicrobial activity against Staphylococcus aureus AS 1.72 assessed as induction of outer membrane permeabilization by measuring NPN uptake by fluorescence assay; format: functional, organism-based
Lipid bilayer [8] = test: Induction of membrane permeabilization in calcein loaded PG/CL large unilamellar vesicles assessed as calcein leakage at 6 uM after 15 mins by fluorescence assay relative to control
Lipid bilayer [9] = test: Induction of membrane permeabilization in calcein loaded LPS/PC/PG large unilamellar vesicles assessed as calcein leakage at 50 uM after 15 mins by fluorescence assay relative to control
[10] = Self-assembly property assessed as diameter of monodispersed micelles at 1 mg/ml at pH 7 by TEM analysis; format: physicochemical
Enterococcus faecium = test: Antimicrobial activity against Enterococcus faecium CGMCC 1.2334 after 18 hrs by micro dilution method; format: functional; conditions: CGMCC 1.2334, 18 h
Enterococcus faecalis = test: Antimicrobial activity against Enterococcus faecalis CGMCC 1.595 after 18 hrs by micro dilution method; format: functional; conditions: CGMCC 1.595, 18 h
Staphylococcus aureus [11] = test: Antimicrobial activity against Staphylococcus aureus AS 1.72 after 18 hrs by micro dilution method; format: functional; conditions: AS 1.72, 18 h
Lipid bilayer [12] = test: Induction of membrane permeabilization in calcein loaded PG/CL/PE large unilamellar vesicles assessed as calcein leakage at 3 uM after 10 mins by fluorescence assay relative to control
Pseudomonas aeruginosa = test: Antimicrobial activity against Pseudomonas aeruginosa CGMCC 1.860 after 18 hrs by micro dilution method; format: functional; conditions: CGMCC 1.860, 18 h
U-937 [13] = test: Antiinflammatory activity in human U937 cells assessed as inhibition of LPS-induced TNF-alpha production at 6.25 uM after 24 hrs by ELISA relative to control; format: functional; conditions: U-937, 24 h
U-937 [14] = test: Antiinflammatory activity in human U937 cells assessed as inhibition of LPS-induced TNF-alpha production at 12.6 uM after 24 hrs by ELISA relative to control; format: functional; conditions: U-937, 24 h
Bacillus cereus = test: Antimicrobial activity against Bacillus cereus AS 1.126 after 18 hrs by micro dilution method; format: functional; conditions: AS 1.126, 18 h
Lipid bilayer [15] = test: Induction of membrane permeabilization in calcein loaded PC/cholesterol large unilamellar vesicles assessed as calcein leakage at 50 uM after 10 mins by fluorescence assay relative to control
Escherichia coli [16] = test: Antimicrobial activity against Escherichia coli AS 1.349 after 18 hrs by micro dilution method; format: functional; conditions: AS 1.349, 18 h
Escherichia coli [17] = test: Antimicrobial activity against Escherichia coli AS 1.349 assessed as induction of outer membrane permeabilization by measuring NPN uptake by fluorescence assay; format: functional, organism-based
Lipopolysaccharide (LPS) [18] = test: Binding affinity to Escherichia coli 0111:B4 LPS assessed as equilibrium association constant by ITC method
U-937 [19] = test: Antiinflammatory activity in human U937 cells assessed as inhibition of LPS-induced IL-6 production at 3.13 uM after 24 hrs by ELISA relative to control; format: functional; conditions: U-937, 24 h
U-937 [20] = test: Antiinflammatory activity in human U937 cells assessed as inhibition of LPS-induced IL-6 production at 12.6 uM after 24 hrs by ELISA relative to control; format: functional; conditions: U-937, 24 h
Lipid bilayer [21] = test: Induction of membrane permeabilization in calcein loaded PG/CL/PE large unilamellar vesicles assessed as calcein leakage at 6 uM after 15 mins by fluorescence assay relative to control
A-375 = test: Cytotoxicity against human A375 cells assessed as reduction in cell viability after 1 hr by MTT assay; format: functional, cell-based; conditions: A-375, 1 h
HeLa = test: Cytotoxicity against human HeLa cells assessed as reduction in cell viability after 1 hr by MTT assay; format: functional, cell-based
Lipid bilayer [22] = test: Induction of membrane permeabilization in calcein loaded PG/CL large unilamellar vesicles assessed as calcein leakage at 3 uM after 10 mins by fluorescence assay relative to control
Lipopolysaccharide (LPS) [23] = test: Induction of LPS micelles disaggergation assessed as abundant particle size formation at 2 uM by DLS method
[24] = Self-assembly property assessed as diameter of tightly packed nanofibers at 1 mg/ml at pH 2 by TEM analysis; format: physicochemical
Staphylococcus aureus [25] = test: Antimicrobial activity against Staphylococcus aureus AS 1.72 assessed as induction of bacterial cytoplasmic membrane depolarization at 2 times MIC after 6 mins by diSC3-5 dye-based fluorescence assay; format: functional, organism-based
U-937 [26] = test: Antiinflammatory activity in human U937 cells assessed as inhibition of LPS-induced TNF-alpha production at 3.13 uM after 24 hrs by ELISA relative to control; format: functional; conditions: U-937, 24 h
Lipopolysaccharide (LPS) [27] = test: Induction of LPS micelles disaggergation assessed as small particle distribution at 2 uM by DLS method
Lipid bilayer [28] = test: Induction of membrane permeabilization in PC/cholesterol large unilamellar vesicles assessed as blue shift by Tryptophan fluorescence spectroscopy
Lipopolysaccharide (LPS) [29] = test: Binding affinity to Escherichia coli 0111:B4 LPS by ITC method
[30] = Cytotoxicity against human U937 cells assessed as cell viability at 3.13 to 12.6 uM after 1 hr by MTT assay relative to control; format: cell-based, U-937; conditions: read-out: Activity
U-937 [31] = test: Antiinflammatory activity in human U937 cells assessed as inhibition of LPS-induced TNF-alpha production after 24 hrs by ELISA; format: functional, cell-based
[32] = Self-assembly property assessed as diameter of monodispersed micelles at 1 mg/ml at pH 2 by TEM analysis; format: physicochemical
Escherichia coli [33] = test: Antimicrobial activity against Escherichia coli AS 1.349 assessed as induction of bacterial cytoplasmic membrane depolarization at 2 times MIC after 7 mins by diSC3-5 dye-based fluorescence assay; format: functional, organism-based

In the case of `CCCCCCCCCCCCCCCC(=O)N[C@@H](CO)C(=O)N[C@@H](CCCCN)C(=O)N[C@H](C(=O)N[C@@H](Cc1c[nH]c2ccccc12)C(=O)N[C@@H](CCCNC(=N)N)C(=O)N[C@@H](Cc1cnc[nH]1)C(=O)N[C@@H](Cc1c[nH]c2ccccc12)C(=O)N[C@@H](CCCNC(=N)N)C(=O)N[C@@H](CCCNC(=N)N)C(=O)N[C@@H](Cc1ccccc1)C(=O)N[C@@H](Cc1c[nH]c2ccccc12)C(=O)N[C@@H](Cc1cnc[nH]1)C(=O)N[C@@H](CCCNC(=N)N)C(=O)N[C@@H](C)C(=O)N[C@@H](Cc1cnc[nH]1)C(=O)N[C@@H](CCCNC(=N)N)C(=O)N[C@@H](CCCCN)C(=O)N[C@@H](CC(C)C)C(=O)O)C(C)C` (Palmitoyl-SKVWRHWRRFWHRAHRKL-OH), the pIC50 (MCF7) was 4.69, the inhibition at 6.25 µM (U-937 [1]) was 31% and the MIC (Lactococcus lactis) was 3.13 µM (≈ 8.71 µg/mL). For the same compound, the inhibition (U-937 [2]) was “Dose-dependent effect”, the Activity (Lipid bilayer [3]) was 18 nm and the Activity (Lipid bilayer [4]) was “Dose-dependent effect”. The HC50 at 1 h [5] was over 500 µM, the Activity (Lipid bilayer [6]) was 14 nm and the Activity (Staphylococcus aureus [7]) was “Dose-dependent effect”. For the same compound, the Activity (Lipid bilayer [8]) was 80%, the Activity (Lipid bilayer [9]) was 55% and the Activity [10] was 24 nm. The MIC (Enterococcus faecium) was 3.13 µM (≈ 8.71 µg/mL), the MIC (Enterococcus faecalis) was 6.25 µM (≈ 17.4 µg/mL) and the MIC (Staphylococcus aureus [11]) was 12.5 µM (≈ 34.8 µg/mL). It also gave an Activity (Lipid bilayer [12]) of 33%, an MIC (Pseudomonas aeruginosa) of 6.25 µM (≈ 17.4 µg/mL) and an inhibition at 6.25 µM (U-937 [13]) of 32%. It also gave an inhibition at 12.6 µM (U-937 [14]) of 35%, an MIC (Bacillus cereus) of 6.25 µM (≈ 17.4 µg/mL) and an Activity (Lipid bilayer [15]) of 20%. The MIC (Escherichia coli [16]) was 12.5 µM (≈ 34.8 µg/mL), the Activity (Escherichia coli [17]) was “Dose-dependent effect” and the Ka (Lipopolysaccharide (LPS) [18]) was 114 mM⁻¹. It also gave an inhibition at 3.13 µM (U-937 [19]) of 27%, an inhibition at 12.6 µM (U-937 [20]) of 35% and an Activity (Lipid bilayer [21]) of 54%. The pIC50 (A-375) was 4.74, the pIC50 (HeLa) was 4.68 and the Activity (Lipid bilayer [22]) was 46%. For the same compound, the Activity (Lipopolysaccharide (LPS) [23]) was 100 nm, the Activity [24] was 200 nm and the Activity (Staphylococcus aureus [25]) was “Active”. For the same compound, the inhibition at 3.13 µM (U-937 [26]) was 24%, the Activity (Lipopolysaccharide (LPS) [27]) was 400 nm and the Activity (Lipid bilayer [28]) was “inactive”. The pKd (Lipopolysaccharide (LPS) [29]) was 5.06, the viability at 1 h, up to 12.6 µM [30] was 80% and the inhibition (U-937 [31]) was “Dose-dependent effect”. The Activity [32] was 5460 nm and the Activity (Escherichia coli [33]) was “Active”.

From ChEMBL document CHEMBL4229350, “Antimicrobial activity and self-assembly behavior of antimicrobial peptide chensinin-1b with lipophilic alkyl tails” (Eur J Med Chem, 2018)
